This passage reports IC50 results from patent publication US9856216B2, “Compounds as TNIK, IKKε and TBK1 inhibitors and pharmaceutical composition comprising same” (GREEN CROSS CORPORATION, priority 2015, dated 2018).

T1 sequence (Q9UKE5 1-367 limits assumed): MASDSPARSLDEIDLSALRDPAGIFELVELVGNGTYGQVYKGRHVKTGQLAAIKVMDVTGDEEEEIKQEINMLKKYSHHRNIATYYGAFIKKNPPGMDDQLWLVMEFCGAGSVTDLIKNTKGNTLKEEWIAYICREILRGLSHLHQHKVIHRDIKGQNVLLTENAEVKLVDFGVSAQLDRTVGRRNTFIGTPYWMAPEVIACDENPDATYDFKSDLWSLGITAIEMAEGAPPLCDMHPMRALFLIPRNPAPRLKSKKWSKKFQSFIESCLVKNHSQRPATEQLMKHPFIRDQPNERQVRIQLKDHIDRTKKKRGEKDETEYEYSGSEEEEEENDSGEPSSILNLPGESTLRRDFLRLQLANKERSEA

This assay has as its target T1, TNIK (Homo sapiens, UniProt Q9UKE5).
T1 construct: purchased Promega V4158
Briefly: ADP-Glo Kinase Assay, inhibition activity on TNIK. The class given is biochemical. As to conditions: read-out: TNIK. On the procedure:
The inhibition activities on TNIK, IKKε and TBK1 were measured by a luminometer, TNIK/IKKε/TBK1 Kinase Enzyme System (Promega, Ca# V4158; Invitrogen, PR8031B, Promega, Ca# V3991) and ADP-Glo Kinase Assay using ADP-Glo™ Kinase Analysis Kit (Promega, Ca# V9101) and a kinase reaction buffer [40 mM Tris(pH 7.5), 20 mM MgCl2, 0.1 mg/mL BSA] in accordance with the manufacturer's protocol.
On the technique in general: In ADP-Glo the light output rises with the ADP produced.
On to `COc1cccc(Nc2ccc(NC(=O)c3ccc(NCCN4CCCCC4)cc3)c3c2CNC3=O)c1` [Example 446, N-(7-((3-methoxyphenyl)amino)-3-oxoisoindolin-4-yl)-4-((2-(piperidin-1-yl)ethyl)amino)benzamide], for which the IC50 worked out at 0.63 µM.

As for `COc1cccc(Nc2ccc(NC(=O)c3ccc(NCCCN4CCCC4)cc3)c3c2CNC3=O)c1` [Example 447, N-(7-((3-methoxyphenyl)amino)-3-oxoisoindolin-4-yl)-4-((3-(pyrrolidin-1-yl)propyl)amino)benzamide], the IC50 was found to be 0.55 µM.

Consider `COc1cccc(Nc2ccc(NC(=O)c3ccc(NCCCN4CCCCC4)cc3)c3c2CNC3=O)c1` [Example 448], for which the IC50 came to 0.62 µM.

Consider `Cc1cccc(Nc2ccc(NC(=O)c3ccc(NCCN4CCCC4)cc3)c3c2CNC3=O)c1` [Example 449, N-(3-oxo-7-(m-tolylamino)isoindolin-4-yl)-4-((2-(pyrrolidin-1-yl)ethyl)amino)benzamide], for which the IC50 is 0.59 µM.

Turning to `Cc1cccc(Nc2ccc(NC(=O)c3ccc(NCCN4CCCCC4)cc3)c3c2CNC3=O)c1` [Example 450, N-(3-oxo-7-(m-tolylamino)isoindolin-4-yl)-4-((2-(piperidin-1-yl)ethyl)amino)benzamide], the IC50 turned out to be 0.58 µM.

Regarding `Cc1cccc(Nc2ccc(NC(=O)c3ccc(NCCCN4CCCC4)cc3)c3c2CNC3=O)c1` [Example 451, N-(3-oxo-7-(m-tolylamino)isoindolin-4-yl)-4-((3-(pyrrolidin-1-yl)propyl)amino)benzamide], the IC50 was found to be 0.48 µM.

Take `Cc1cccc(Nc2ccc(NC(=O)c3ccc(NCCCN4CCCCC4)cc3)c3c2CNC3=O)c1` [Example 452, N-(3-oxo-7-(m-tolylamino)isoindolin-4-yl)-4-((3-(piperidin-1-yl)propyl)amino)benzamide]: the IC50 was found to be 0.44 µM.

For `O=C(Nc1ccc(Nc2ccccc2Cl)c2c1C(=O)NC2)c1ccc(NCCN2CCCC2)cc1` [Example 453, N-(7-((2-chlorophenyl)amino)-3-oxoisoindolin-4-yl)-4-((2-(pyrrolidin-1-yl)ethyl)amino)benzamide], the IC50 is 0.51 µM.

As for `O=C(Nc1ccc(Nc2ccccc2Cl)c2c1C(=O)NC2)c1ccc(NCCN2CCCCC2)cc1` [Example 454, N-(7-((2-chlorophenyl)amino)-3-oxoisoindolin-4-yl)-4-((2-(piperidin-1-yl)ethyl)amino)benzamide], the IC50 was found to be 0.53 µM.

Regarding `O=C(Nc1ccc(Nc2cccc(Cl)c2)c2c1C(=O)NC2)c1ccc(NCCN2CCCC2)cc1` [Example 455, N-(7-((3-chlorophenyl)amino)-3-oxoisoindolin-4-yl)-4-((2-(pyrrolidin-1-yl)ethyl)amino)benzamide], the IC50 was 0.2 µM.

Regarding `O=C(Nc1ccc(Nc2cccc(Cl)c2)c2c1C(=O)NC2)c1ccc(NCCN2CCCCC2)cc1` [Example 456, N-(7-((3-chlorophenyl)amino)-3-oxoisoindolin-4-yl)-4-((2-(piperidin-1-yl)ethyl)amino)benzamide], the IC50 was 0.34 µM.

Consider `O=C(Nc1ccc(Nc2cccc(Cl)c2)c2c1C(=O)NC2)c1ccc(NCCCN2CCCC2)cc1` [Example 457, N-(7-((3-chlorophenyl)amino)-3-oxoisoindolin-4-yl)-4-((3-(pyrrolidin-1-yl)propyl)amino)benzamide], for which the IC50 stood at 0.15 µM.

For `O=C(Nc1ccc(Nc2cccc(Cl)c2)c2c1C(=O)NC2)c1ccc(NCCCN2CCCCC2)cc1` [Example 458, N-(7-((3-chlorophenyl)amino)-3-oxoisoindolin-4-yl)-4-((3-(piperidin-1-yl)propyl)amino)benzamide], the IC50 was determined as 0.24 µM.

Turning to `O=C(Nc1ccc(Nc2ccccc2)c2c1C(=O)NC2)c1ccc(NCCCN2CCCC2=O)cc1` [Example 459, N-(3-oxo-7-(phenylamino)isoindolin-4-yl)-4-((3-(2-oxopyrrolidin-1-yl)propyl)amino)benzamide], the IC50 was 0.21 µM.

As to `CN(C)CCCNc1ccc(C(=O)Nc2ccc(Nc3ccccc3)c3c2C(=O)NC3)cc1` [Example 460, 4-((3-(Dimethylamino)propyl)amino)-N-(3-oxo-7-(phenylamino)isoindolin-4-yl)benzamide], the IC50 was determined as 0.14 µM.

For `O=C(Nc1ccc(Nc2ccccc2)c2c1C(=O)NC2)c1ccc(NCCCN2CCOCC2)cc1` [Example 461, 4-((3-Morpholinopropyl)amino)-N-(3-oxo-7-(phenylamino)isoindolin-4-yl)benzamide], the IC50 worked out at 0.38 µM.

Consider `O=C(Nc1ccc(Nc2ccccc2)c2c1C(=O)NC2)c1ccc(NCCCN2CCCC2)cc1` [Example 462, N-(3-oxo-7-(phenylamino)isoindolin-4-yl)-4-((3-(pyrrolidin-1-yl)propyl)amino)benzamide], for which the IC50 turned out to be 0.29 µM.

Regarding `CN1CCN(CCCNc2ccc(C(=O)Nc3ccc(Nc4ccccc4)c4c3C(=O)NC4)cc2)CC1` [Example 463, 4-((3-(4-Methylpiperazin-1-yl)propyl)amino)-N-(3-oxo-7-(phenylamino)isoindolin-4-yl)benzamide], the IC50 was 0.37 µM.

Turning to `O=C(Nc1ccc(Nc2ccccc2)c2c1C(=O)NC2)c1ccc(NCCCO)cc1` [Example 464, 4-((3-Hydroxypropyl)amino)-N-(3-oxo-7-(phenylamino)isoindolin-4-yl)benzamide], the IC50 was found to be 0.074 µM.

Regarding `O=C(Nc1ccc(Nc2cc(C(F)(F)F)cc(C(F)(F)F)c2)c2c1C(=O)NC2)c1ccc(NCCN2CCCC2)cc1` [Example 465, N-(7-((3,5-bis(trifluoromethyl)phenyl)amino)-3-oxoisoindolin-4-yl)-4-((2-(pyrrolidin-1-yl)ethyl)amino)benzamide], the IC50 is above 20 µM.

As to `O=C(Nc1ccc(Nc2cc(C(F)(F)F)cc(C(F)(F)F)c2)c2c1C(=O)NC2)c1ccc(NCCCN2CCCC2)cc1` [Example 466, N-(7-((3,5-bis(trifluoromethyl)phenyl)amino)-3-oxoisoindolin-4-yl)-4-((3-(pyrrolidin-1-yl)propyl)amino)benzamide], the IC50 came to 14 µM.

For `O=C(Nc1ccc(Nc2cc(C(F)(F)F)cc(C(F)(F)F)c2)c2c1C(=O)NC2)c1ccc(NCCN2CCCCC2)cc1` [Example 467, N-(7-((3,5-bis(trifluoromethyl)phenyl)amino)-3-oxoisoindolin-4-yl)-4-((2-(piperidin-1-yl)ethyl)amino)benzamide], the IC50 is above 20 µM.

Consider `O=C(Nc1ccc(Nc2cc(C(F)(F)F)cc(C(F)(F)F)c2)c2c1C(=O)NC2)c1ccc(NCCCN2CCCCC2)cc1` [Example 468, N-(7-((3,5-bis(trifluoromethyl)phenyl)amino)-3-oxoisoindolin-4-yl)-4-((3-(piperidin-1-yl)propyl)amino)benzamide], for which the IC50 is 17.1 µM.

On to `Cc1cccc(Nc2ccc(NC(=O)c3ccc(NCCN4CCCC4)cc3)c3c2CNC3=O)c1C` [Example 469, N-(7-((2,3-dimethylphenyl)amino)-3-oxoisoindolin-4-yl)-4-((2-(pyrrolidin-1-yl)ethyl)amino)benzamide], for which the IC50 is 0.37 µM.

As for `Cc1cccc(Nc2ccc(NC(=O)c3ccc(NCCCN4CCCC4)cc3)c3c2CNC3=O)c1C` [Example 470, N-(7-((2,3-dimethylphenyl)amino)-3-oxoisoindolin-4-yl)-4-((3-(pyrrolidin-1-yl)propyl)amino)benzamide], the IC50 is 0.47 µM.

Regarding `Cc1cccc(Nc2ccc(NC(=O)c3ccc(NCCN4CCCCC4)cc3)c3c2CNC3=O)c1C` [Example 471, N-(7-((2,3-dimethylphenyl)amino)-3-oxoisoindolin-4-yl)-4-((2-(piperidin-1-yl)ethyl)amino)benzamide], the IC50 was 0.61 µM.

In the case of `Cc1cccc(Nc2ccc(NC(=O)c3ccc(NCCCN4CCCCC4)cc3)c3c2CNC3=O)c1C` [Example 472, N-(7-((2,3-dimethylphenyl)amino)-3-oxoisoindolin-4-yl)-4-((3-(piperidin-1-yl)propyl)amino)benzamide], the IC50 stood at 0.41 µM.

Regarding `Cc1ccccc1Nc1ccc(NC(=O)c2ccc(NCCN3CCCC3)cc2)c2c1CNC2=O` [Example 473, N-(3-oxo-7-(o-tolylamino)isoindolin-4-yl)-4-((2-(pyrrolidin-1-yl)ethyl)amino)benzamide], the IC50 turned out to be 0.43 µM.

On to `COc1ccccc1Nc1ccc(NC(=O)c2ccc(NCCN3CCCC3)cc2)c2c1CNC2=O` [Example 474, N-(7-((2-methoxyphenyl)amino)-3-oxoisoindolin-4-yl)-4-((2-(pyrrolidin-1-yl)ethyl)amino)benzamide], for which the IC50 turned out to be 0.44 µM.

Take `COc1ccccc1Nc1ccc(NC(=O)c2ccc(NCCCN3CCCC3)cc2)c2c1CNC2=O` [Example 475, N-(7-((2-methoxyphenyl)amino)-3-oxoisoindolin-4-yl)-4-((3-(pyrrolidin-1-yl)propyl)amino)benzamide]: the IC50 was 0.47 µM.

In the case of `Cc1ccccc1Nc1ccc(NC(=O)c2ccc(NCCCN3CCCC3)cc2)c2c1CNC2=O` [Example 476, N-(3-oxo-7-(o-tolylamino)isoindolin-4-yl)-4-((3-(pyrrolidin-1-yl)propyl)amino)benzamide], the IC50 was determined as 0.5 µM.

Consider `COc1ccccc1Nc1ccc(NC(=O)c2ccc(NCCN3CCCCC3)cc2)c2c1CNC2=O` [Example 477, N-(7-((2-methoxyphenyl)amino)-3-oxoisoindolin-4-yl)-4-((2-(piperidin-1-yl)ethyl)amino)benzamide], for which the IC50 is 0.42 µM.

Consider `COc1ccccc1Nc1ccc(NC(=O)c2ccc(NCCCN3CCCCC3)cc2)c2c1CNC2=O` [Example 478, N-(7-((2-methoxyphenyl)amino)-3-oxoisoindolin-4-yl)-4-((3-(piperidin-1-yl)propyl)amino)benzamide], for which the IC50 amounted to 0.49 µM.

For `O=C(Nc1ccc(Nc2ccccc2)c2c1C(=O)NC2)c1ccc(NCCCN2CCCCC2)cc1` [Example 479, N-(3-oxo-7-(phenylamino)isoindolin-4-yl)-4-((3-(piperidin-1-yl)propyl)amino)benzamide], the IC50 turned out to be 0.11 µM.
